Measurements as given in patent US20050287068A1, “Efficacy of active immunotherapy by integrating diagnostic with therapeutic methods” (priority 2004, published 2005).

System: PRAME 425-433
Test: IFN-gamma ELISA on splenocytes restimulated with native peptide after intra-lymph-node immunization
Type: in vivo, HHD transgenic mice
Conditions: different concentrations of plasmid or peptide (peptide together with dsRNA), inguinal lymph nodes, days 0, 3, 14 and 18; spleens 10 days after immunization; FIG. 4 in pg IFN-gamma/ml
Source text: HHD transgenic mice (n=4/group) were immunized with a PRAME 425-433 expressing plasmid (as described in U.S. Provisional Application No. __/______ (Atty Docket No. MANNK.053PR), entitled METHODS AND COMPOSITIONS TO ELICIT MULTIVALENT IMMUNE RESPONSES AGAINST DOMINANT AND SUBDOMINANT EPITOPES, EXPRESSED ON CANCER CELLS AND TUMOR STROMA, filed on date even with this disclosure, which is hereby incorporated by reference in its entirety) or peptide together with dsRNA (different concentrations of plasmid or peptide, by direct inoculation into the inguinal lymph nodes with 25 μl of plasmid or peptide in PBS/lymph node, on days 0, 3, 14 and 18. Spleens were harvested at 10 days after completion of immunization, splenocytes were incubated over 48 hours with native peptide (10 μg/ml), supernatants harvested and IFN-gamma concentration measured by ELISA.

With “PRAME 425-433 peptide: PRAME 425-433 peptide given together with dsRNA into inguinal lymph nodes (SLLQHLIGL; UniProt P78395 425-433, looked up, fragment)” the “magnitude of the immune response (IFN-gamma concentration measured by ELISA)” value was “the larger the dose of peptide, the lower the immune response”.
